Measurements: patent publication US4276890A, “Tobacco smoking inhibitor” (priority 1979, dated 1981)
Values joined by “and” are separate entries in the source; they are usually repeats but may differ in a detail not shown here. Equal entries are not always repeated. “Also recorded” adds a separate entry of the source.

Legend:
[1] = system: cigarette consumption of smokers; assay: Multi-day dose course in individual smokers (Example 4, Table 1): tobacco consumption; type: in vivo, human (volunteer smokers)
Excerpt: Smoking behavior is complex and includes cigarette, pipe and cigar smoking. Both from the standpoint of habituation and of health hazard, cigarette smoking is considered to be the most serious. It is contemplated that the treatment method described herein will be effective to inhibit all forms of smoking behavior and combinations thereof, involving the consumption of tobacco. For convenience, the ensuing discussion focuses on cigarette smoking, as exemplary of smoking behavior in general. Tobacco consumption is a function the number of cigarettes smoked and the proportion of each cigarette smoked. Reduction of consumption is measured by comparison with a smoker's pretreatment consumption rate. All data used herein are expressed as percent reduction, i.e., the differential between pretreatment and current smoking consumption rate divided by the pretreatment rate, times 100. All rates are calculated to take into account both the number of cigarettes smoked and the proportion of each smoked.
Extensive tests were made of individual smokers of varied age, smoking history, and sex in a course of treatment extending over several days. All smokers tested in this experiment were initially naive as to the purpose of the test or the expected effect. The subjects volunteered for the tests after being told that the material is safe according to FDA food additive standards and that they were to report all observed effects. So far as can be ascertained none of the subjects deduced the true purpose of the test until the effects were made obvious by substantial involuntary reduction in their smoking activities. Subjects were interviewed before the dosage course to insure that they were in general good health. Interviews were also conducted during and after the dosage course, at least every third day to ascertain what physiological or psychological effects were experienced. No side effects were noted during or after the treatment cycle.
Several individuals from the original test series volunteered for additional testing. In all such instances, a treatment free period of three weeks to three months was interposed between tests.
Subjects are identified by number. The original, naive tests are identified by the letter "a" following the subjects' number. Subsequent test series are identified sequentially by "b" and "c", where appropriate.
All subjects except nos. 10 and 11 received ethyl maltol in a chewing gum with instructions to chew for at least 10 minutes, and preferably 15 minutes. Subjects 10 and 11 received ethyl maltol in tablet form, rather than by sustained release in the mouth.

smoking level of smokers = assay: Daily rates of smoking reduction (Example 5, Table II; comparison with placebo groups of Example 6); type: in vivo, human (volunteer smokers); details: for reduction in smoking level: 1,000 mg/day, eight slowly dissolving lozenges, individual subjects
Description: Subjects who participated had prior knowledge of the purported effect of the treatment. They were asked to test a new dosage form and told that a "cure" was not necessarily to be expected in this test. The dosage was 1,000 mg/day of ethyl maltol divided over eight pieces of slowly dissolving lozenges, made essentially as described supra. Subjects administered their own dosage without supervision. The tests were designed and supervised by the inventor but carried out by intermediaries, in order to maximize the opportunity for objective evaluation of symptoms, and to minimize any possibility of investigative bias influencing the results. (True double blind tests are impossible because the gamma pyrone flavor is distinctive and virtually impossible to mask). Subjects were all in generally good health, and were selected to represent a variety of ages, occupational stresses, and personal life styles.
Levels of tobacco consumption were calculated taking into account the number of cigarettes smoked and the proportions smoked. They are expressed as percent reduction from the pretest smoking level.
During the same time period that the studies in Example Five were conducted, two groups of smokers were administered a placebo dosage comprising the same basic candy lozenge, but lacking any gamma pyrone and containing ascorbic and citric acids to impart a sharp, medicinal flavor.
This conclusion is further substantiated by analysis of variance. For such analysis, individual tests that were either incomplete or which presented unusual circumstances were discarded. Results from placebo groups one and two were pooled. The average percent reduction in smoking is plotted in FIG. 1, for the treatment and the placebo groups.

[2] = cited from earlier work
[3] = chewing gum, 600 mg/day, 1 day, subject 8b
[4] = chewing gum, 800 mg/day, course: 1a 16 days, 2b 20, 7b 20, 8a 1, 9a 5 days
[5] = chewing gum, 900 mg/day, 12 days, subject 2a
[6] = chewing gum, 1200 mg/day, 8 days, subject 4a
[7] = chewing gum, 1500 mg/day, 25 days, subject 3a
[8] = tablets, 1000 mg/day, 15 days, subject 11a
[9] = tablets, 1200 mg/day, 10 days, subject 10a

CCc1occc(=O)c1O [ethyl maltol, 3-hydroxy-2-ethyl-4-pyrone]
Cigarette Consumption per day at end (in words) ([1]; chewing gum, 600 mg/day, 1 day, subject 6a, for following 2 wks.): Reduced to 1/2 pack for following | Change in Smoking Pattern per cig. [1, 3]: Less than 1/2 | Cigarette Consumption per day at end [1, 3]: 7 cigarettes per day | Percentage Reduction [1, 3]: 40-50% | Change in Smoking Pattern per cig. ([1]; chewing gum, 700 mg/day, course: 2c 30 days, 3b 8, 5a 14, 7c 40 days): Approx. 1/2; also recorded: Varied; also recorded: Less than 3/4; also recorded: Reduced to 2-3 puffs | Change in Smoking Pattern per cig. [1, 4]: Approx. 1/2; also recorded: Less than 1/2; also recorded: Less than 3/4; also recorded: Reduced to light-up | Percentage Reduction [1, 4]: 70-80% and 41-68% and 75% and 75-80% and 70% | Cigarette Consumption per day at end [1, 5]: 0 cigarettes per day | Percentage Reduction [1, 5]: 100% | Change in Smoking Pattern per cig. ([1]; chewing gum, 1000 mg/day, course: 4b 4 days, 7a 7, 12a 8 days): Less than 1/2; also recorded: Reduced to 3-4 puffs | Cigarette Consumption per day at end [1, 6]: 0 cigarettes per day | Percentage Reduction [1, 6]: 100% | Cigarette Consumption per day at end [1, 7]: 0 cigarettes per day | Percentage Reduction [1, 7]: 100% | Smoking during dose course (in words) ([1]; non-habit smoker 13a, chewing gum, 1000 mg/day, 2 days): Not able to finish cigarette | effectiveness of systemic administration ([1]; tablet form, subjects 10 and 11, retention in the mouth not ruled out): partially effective | Change in Smoking Pattern per cig. [1, 8]: Less than 3/4 | Cigarette Consumption per day at end [1, 8]: 17-18 cigarettes per day | Percentage Reduction [1, 8]: 40-43% | Change in Smoking Pattern per cig. [1, 9]: Reduced to 3-4 puffs | Cigarette Consumption per day at end [1, 9]: 10-12 cigarettes per day | Percentage Reduction [1, 9]: 70-75% | reduction in smoking level (smoking level of smokers; Day 1): 10% | reduction in smoking level (smoking level of smokers; Day 2): 5% and 15% and 10% and 30% and 20% | reduction in smoking level (smoking level of smokers; Day 3): 10% and 20% and 5% and 40% and 60% and 30% and 15% and 45% | reduction in smoking level (smoking level of smokers; Day 4): 40% and 50% and 10% and 65% and 5% and 75% and 70% and 30% | reduction in smoking level (smoking level of smokers; Day 5): 30% and 80% and 10% and 85% and 60% and 90% and 50% and 35% and 95% | reduction in smoking level (smoking level of smokers; Day 6): 60% and 95% and 20% and 15% and 50% and 70% and 25% | reduction in smoking level (smoking level of smokers; Day 7): 50% and 40% and 20% and 90% and 65% and 85% and 30% and 45% | reduction in smoking level (smoking level of smokers; Day 8): 70% and 55% and 40% and 75% and 15% and 90% and 50% | reduction in smoking level (smoking level of smokers; Day 9): 80% and 70% and 20% and 65% and 95% and 90% | reduction in smoking level (smoking level of smokers; Day 10): 85% and 90% and 30% and 70% and 80% | discontinuation (smoking level of smokers; subject 10, after day 5, "beer tasted funny"): Discontinued | absorption ([2]; after oral administration): rapidly absorbed | excretion ([2]; after oral administration): rapidly excreted | form of excretion ([2]; after oral administration): primarily as glucuronide and ethereal sulfate conjugates | metabolism and excretion ([2]; in vivo): rapidly metabolized and excreted
